From ChEMBL document CHEMBL1130573, “Anti-AIDS agents-XXVIII.1 Synthesis and Anti-HIV activity of methoxy substituted 3,4-Di-O-()-camphanoyl-(+)-cis-khellactone (DCK) analogues” (Bioorg Med Chem Lett, 1997)

Experiments:
[1] = tested on: H9; experiment: Anti-HIV activity was evaluated for the concentration that inhibits viral replication by 50%; assay type: functional, cell-based; conditions: Homo sapiens
[2] = Therapeutic index is the ratio of IC50 of compound to that of EC50; conditions: read-out: Therapeutic index
[3] = tested on: H9; experiment: Inhibitory activity against gorwth of uninfected H9 cell growth by 50%; assay type: functional, cell-based; conditions: Homo sapiens

Row | Structure (SMILES) | EC50 [1] [nM] | selectivity ratio [2] | IC50 [3] [µM]
1 | CC1(C)Oc2ccc3ccc(=O)oc3c2[C@@H](OC(=O)C23CCC(C)(C(=O)O2)C3(C)C)[C@H]1OC(=O)C12CCC(C)(C(=O)O1)C2(C)C (stereo partly specified) | 0.256 | 137000 | 35
2 | COc1cc2c(c3oc(=O)ccc13)[C@@H](OC(=O)C13CCC(C)(C(=O)O1)C3(C)C)[C@@H](OC(=O)C13CCC(C)(C(=O)O1)C3(C)C)C(C)(C)O2 (stereo partly specified) | 0.138 | > 403000 | > 153
3 | COc1cc(=O)oc2c3c(ccc12)OC(C)(C)[C@H](OC(=O)C12CCC(C)(C(=O)O1)C2(C)C)[C@@H]3OC(=O)C12CCC(C)(C(=O)O1)C2(C)C (stereo partly specified) | 2.76 | > 51000 | > 153
4 | COc1cc2ccc(=O)oc2c2c1OC(C)(C)[C@H](OC(=O)C13CCC(C)(C(=O)O1)C3(C)C)[C@@H]2OC(=O)C12CCC(C)(C(=O)O1)C2(C)C (stereo partly specified) | 24500 | > 9.68 | > 153
5 | COc1cc2ccc3c(c2oc1=O)[C@@H](OC(=O)C12CCC(C)(C(=O)O1)C2(C)C)[C@@H](OC(=O)C12CCC(C)(C(=O)O1)C2(C)C)C(C)(C)O3 (stereo partly specified) | 6 | > 25500 | > 153
6 | Cc1cn([C@H]2C[C@H](N=[N+]=[N-])[C@@H](CO)O2)c(=O)[nH]c1=O [ZIDOVUDINE] | 45 |  | 
